PMC8533202, “Design of Inhibitors of the Intrinsically Disordered Protein NUPR1: Balance between Drug Affinity and Target Function” (Biomolecules, 2021)
Where two headings read alike, the source gives them in different places.

Columns and labels:
[1] = system: PDAC088T cells; design: method as in PMID 30920390; settings: control, previously obtained; cited from earlier work
[2] = system: PDAC082T cells; design: method as in PMID 30920390; settings: control, previously obtained; cited from earlier work
[3] = system: PDAC081T cells; design: method as in PMID 30920390; settings: control, previously obtained; cited from earlier work
[4] = molecular target: T1, NUPR1 (Homo sapiens, UniProt O60356); design: method as in PMID 30920390; settings: ITC; cited from earlier work
T1 construct: made in house
T1 sequence (O60356 1-82): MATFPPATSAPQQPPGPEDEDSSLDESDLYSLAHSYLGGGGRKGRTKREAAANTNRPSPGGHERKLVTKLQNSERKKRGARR

[5] = system: PDAC087T cells; design: method as in PMID 30920390; settings: control, previously obtained; cited from earlier work
[6] = system: PDAC012T cells; design: method as in PMID 30920390; settings: control, previously obtained; cited from earlier work
[7] = system: PDAC001T cells; design: method as in PMID 30920390; settings: control, previously obtained; cited from earlier work
[8] = system: PDAC115T cells; design: method as in PMID 30920390; settings: control, previously obtained; cited from earlier work
[9] = system: PDAC021T cells; design: method as in PMID 30920390; settings: control, previously obtained; cited from earlier work
[10] = molecular target: T1, NUPR1; design: method as in PMID 28054562; settings: molecular scaffold of TFP; cited from earlier work
[11] = system: MiaPaCa-2 cells; design: method as in PMID 30920390; settings: control, previously obtained; cited from earlier work
[12] = system: PDAC089T cells; design: method as in PMID 30920390; settings: control, previously obtained; cited from earlier work
[13] = molecular target: T1, NUPR1; experiment: Isothermal titration calorimetry (ITC) binding to NUPR1; settings: 25 °C
Protocol: The binding of the ZZW-115-derived compounds to NUPR1 was determined as described by using a high sensitivity isothermal titration calorimeter Auto-iTC200 (MicroCal, Malvern-Panalytical, Malvern, UK). Protein samples and solutions were properly degassed. Experiments were performed with freshly prepared protein solutions at 25 °C. A solution of NUPR1 (20 μM, in sodium phosphate 20 mM, pH 7.0, 2% DMSO) in the calorimetric cell was titrated with a solution of each compound (200 μM, in sodium phosphate 20 mM pH 7.0, 2% DMSO). The inhibitors were dissolved in the same buffer used for the protein. A standard protocol was employed: 19 titrant injections with 2 μL compound solution were programmed with a time spacing of 150 s, a stirring speed of 750 rpm, and a reference power of 10 μcal/s. The heat evolved after each ligand injection was calculated from the integral of the calorimetric signal. The heat due to the binding reaction was obtained as the difference between the reaction heat and the corresponding heat of injection, the latter estimated as a constant value throughout the experiment, and included as an adjustable parameter in the analysis. Control experiments (with the compounds injected into the buffer) were performed under the same experimental conditions.
The association constant (Ka), the enthalpy change (ΔH) and the stoichiometry (n) of the binding reaction were obtained through nonlinear regression analysis of experimental data to a model assuming a single ligand binding site for the protein. Experiments were performed in replicate and data were analyzed using in-house-developed software implemented in Origin 7 (OriginLab).
The interaction between ZZW-115-Derived compounds and NUPR1 was studied by using ITC, the gold-standard technique in binding-affinity determination, to test our theoretical prediction. […] From the thermogram (thermal power as a function of time), the binding isotherm (ligand-normalized heat as a function of the molar ratio) was obtained through integration of the individual heat effect associated with injection of each ligand solution (Figure 3). We used a nonlinear least-squares regression analysis employing a model that considered a single binding site in NUPR1 to estimate binding parameters such as the dissociation constant and the binding enthalpy.

[14] = system: NUPR1 nuclear translocation; experiment: NUPR1 nuclear translocation, immunofluorescence in MiaPaCa-2 cells; format: cell-based, human; settings: 3 µM, 6 h (Figure 4)
Protocol: Cells (100000 cells/well) were seeded in 12-well plates on coverslips overnight and then treated with 3 μM concentration of each compound for […]. After fixation with 4% paraformaldehyde (Sigma-Aldrich, St. Quentin, Fallavier, France) for 15 min, cells were washed twice with 1x PBS and incubated 1 h with the following antibodies at 1:200 dilution: rabbit anti-NUPR1 primary antibody (homemade) or γH2AX primary antibody (ab26350, Abcam, Paris, France). After the washing steps, samples were incubated 1 h with secondary antibodies at 1:500 dilution (goat anti-rabbit Alexa Fluor 488, A27034, or goat anti-mouse Alexa Fluor 488, A28175, both from Thermo Fisher Scientific, Franklin, MA, USA). ProLong™ Gold Antifade Mountant with DAPI (P36931, Thermo Fisher Scientific) was used to stain the nucleus and seal the samples. Image acquisition of Alexa Fluor 488-derived fluorescence and DAPI staining was detected with an LSM 880 controlled by Zeiss Zen Black 63x lens. Co-localization analysis and measurements in both channels were performed by using the ImageJ Coloc 2 plugin (version 3.0.5).
MiaPaCa-2 cells were treated with representative ZZW-115-derived compounds (3 µM) for 6 h. […] DAPI staining was used to detect cell nuclei, and it was combined with the Alexa 488 fluorescence in the merged panel. […]

[15] = system: PDAC001T cells; experiment: Cell viability assay (PrestoBlue); format: cell-based; settings: Homo sapiens; PDAC001T (basal subtype), 72 h
Text: (§1) Primary pancreatic cancer cells PDAC001T, PDAC012T, PDAC021T, PDAC081T, PDAC082T, PDAC087T, PDAC088T, PDAC089T, and PDAC115T were obtained from the PaCaOmics clinical trial registered at www.clinicaltrials.gov (accessed on 2 October 2021) with registration number NCT01692873. We included PDAC samples from both echoendoscopic ultrasound-guided fine-needle (EUS-FNA) biopsies for patients with unresectable tumors and from surgical specimens for patients undergoing surgery. The tumor samples of these patients were used to generate patient-derived xenograft in nude mice as previously reported. Xenografts obtained from mice were split into several small pieces and used for cell culture in a biosafety chamber: after fine mincing, they were treated with collagenase type V (ref C9263; Sigma-Aldrich, St. Louis, MO, USA) and trypsin/EDTA (ref 25200-056; Gibco, Life Technologies, Grand Island, NY, USA) and were suspended in Dulbecco’s modified Eagle’s medium supplemented with 1% w/w penicillin/streptomycin (Gibco, Life Technologies, Paisley, UK) and 10% fetal bovine serum (Lonza Inc., Walkersville, MD, USA). After centrifugation, cells were resuspended in serum-free ductal media adapted from Schreiber et al. at 37 °C in a 5% CO2 incubator. Amplified cells were stored in liquid nitrogen as previously reported. Cells were weaned from antibiotics for ≥48 h before testing.
(§2) Cell viability was evaluated in ten pancreatic cancer cell lines, including MiaPaCa-2, and nine primary pancreatic cancer-derived cell lines: PDAC001T, PDAC012T, PDAC021T, PDAC081T, PDAC082T, PDAC087T, PDAC088T, PDAC089T, and PDAC115T. MiaPaCa-2 cells were obtained from ATCC (Manassas, VA, USA) and maintained in DMEM (Invitrogen, Cergy-Pontoise, France), supplemented with 10% […] at 37 °C with 5% CO2. The primary pancreatic cancer-derived cells were cultured in serum free ductal media (SFDM) following a procedure adapted from those previously described, without antibiotic, and incubated at 37 °C in a 5% CO2 incubator. Cells were plated in 96-well plates (5000 cells/well) overnight. Then, the media were supplemented with the compounds to be tested at 0–100 µM concentration, and the samples were incubated for another additional 72 h before performing the measurement. Cell viability was estimated after addition of PrestoBlue™ reagent (Life Technologies, Paris, France) for 3 h according to the PrestoBlue™ cell viability reagent protocol provided by the supplier. Cell viability was normalized when comparing to untreated cell rates. Experiments were performed in triplicate and each set was repeated three times, with similar results.

[16] = system: PDAC089T cells; experiment: Cell viability assay (PrestoBlue); format: cell-based; settings: Homo sapiens; PDAC089T (derived from a liver metastasis), 72 h
Text: as §1, §2

[17] = system: PDAC012T cells; experiment: Cell viability assay (PrestoBlue); format: cell-based; settings: Homo sapiens; PDAC012T (classical subtype), 72 h
Text: as §1, §2

[18] = system: PDAC088T cells; experiment: Cell viability assay (PrestoBlue); format: cell-based; settings: Homo sapiens; PDAC088T (classical subtype), 72 h
Text: as §1, §2

[19] = system: PDAC081T cells; experiment: Cell viability assay (PrestoBlue); format: cell-based; settings: Homo sapiens; PDAC081T (classical subtype), 72 h
Text: as §1, §2

[20] = system: PDAC087T cells; experiment: Cell viability assay (PrestoBlue); format: cell-based; settings: Homo sapiens; PDAC087T (basal subtype), 72 h
Text: as §1, §2

[21] = system: PDAC082T cells; experiment: Cell viability assay (PrestoBlue); format: cell-based; settings: Homo sapiens; PDAC082T (classical subtype), 72 h
Text: as §1, §2

[22] = system: PDAC021T cells; experiment: Cell viability assay (PrestoBlue); format: cell-based; settings: Homo sapiens; PDAC021T (basal subtype), 72 h
Text: as §1, §2

[23] = system: PDAC115T cells; experiment: Cell viability assay (PrestoBlue); format: cell-based; settings: Homo sapiens; PDAC115T (basal subtype), 72 h
Text: as §1, §2

[24] = system: MiaPaCa-2 cells; experiment: Cell viability assay (PrestoBlue); format: cell-based, human; settings: MiaPaCa-2, 72 h
Protocol: as §2

For `CN1CCN(CCCN2c3ccccc3Sc3ccc(C(F)(F)F)cc32)CC1` [TFP, trifluoperazine], the IC50 [1] is listed as 15.9 µM, the IC50 [2] is listed as 21.5 µM and the IC50 [3] is listed as 2.48 µM. The Ka [4] was 1.9 ± 0.2 M^–1 × 10^5, the “N (stoichiometry)” value [4] was 1.0 ± 0.1 and the ΔG [4] was −7.2 ± 0.1 kcal mol^–1. The ΔH [4] was −1.1 ± 0.4 kcal mol^–1, the “−TΔS” value [4] was −6.1 ± 0.4 kcal mol^–1 and the IC50 [5] was 7.8 µM. The IC50 [6] was 20.4 µM, the IC50 [7] was 12.5 µM and the IC50 [8] was 10.1 µM. For the same molecule, the IC50 [9] was 23.5 µM, the calculated binding score [10] was “–7.0 kcal/mol” and the IC50 [11] was 9.28 µM. For the same molecule, the IC50 [12] was 8.09 µM.

For `CN(C)CCN1CCN(CCCN2c3ccccc3Sc3ccc(C(F)(F)F)cc32)CC1` [ZZW-115], the IC50 [1] is listed as 5.29 µM, the IC50 [2] is listed as 2.36 µM and the IC50 [3] is listed as 0.84 µM. The Ka [4] was 4.7 ± 0.4 M^–1 × 10^5, the “N (stoichiometry)” value [4] was 0.9 ± 0.1 and the ΔG [4] was −7.7 ± 0.1 kcal mol^–1. For the same molecule, the ΔH [4] was −0.4 ± 0.3 kcal mol^–1, the “−TΔS” value [4] was −7.3 ± 0.3 kcal mol^–1 and the IC50 [5] was 3.72 µM. The IC50 [6] was 2.44 µM, the IC50 [7] was 1.84 µM and the IC50 [8] was 2.21 µM. The IC50 [9] was 2.54 µM, the IC50 [11] was 0.32 µM and the IC50 [12] was 4.72 µM.

For `CN(C)CCCN1CCN(CCCN2c3ccccc3Sc3ccc(C(F)(F)F)cc32)CC1` [ZZW-142], the “N (stoichiometry)” value ([13]; pH 7.0) was 1.3 ± 0.1, the ΔG ([13]; pH 7.0) was −7.8 ± 0.1 kcal mol^–1 and the ΔH ([13]; pH 7.0) was 0.3 ± 0.3 kcal mol^–1. The “−TΔS” value ([13]; pH 7.0) was −8.1 ± 0.3 kcal mol^–1, the Ka ([13]; sodium phosphate 20 mM, pH 7.0, 2% DMSO) was 4.9 ± 0.3 M^–1 × 10^5 and the Kd ([13]; sodium phosphate 20 mM, pH 7.0, 2% DMSO, read-out: Kd (=1/Ka)) was 2 ± 0.2 µM. For the same molecule, the “ability to hamper NUPR1 nuclear translocation” value [14] was “worst effect in hampering the nuclear translocation efficiency”, the IC50 [15] was 11.9 µM and the IC50 [16] was 22.5 µM. It also gave an IC50 [17] of 12.8 µM, an IC50 [18] of 23.9 µM and an IC50 [19] of 2.27 µM. For the same molecule, the IC50 [20] was 16.6 µM, the IC50 [21] was 23 µM and the IC50 [22] was 17 µM. For the same molecule, the IC50 [23] was 14.7 µM, the IC50 ([24]; Homo sapiens, MIA PaCa-2, 72 h) was about 1 µM and the IC50 [24] was 0.95 µM.
